Data taken from ChEMBL document CHEMBL5338739, “Discovery of Dual Lysine Methyltransferase G9a and EZH2 Inhibitors with In Vivo Efficacy against Malignant Rhabdoid Tumor” (J Med Chem, 2023).
Active and inactive are the calls of the source. The calls are words filed in the database; no cut-off is given here.

Key:
[1] = molecular target: T1, Histone-lysine N-methyltransferase EZH1 (Homo sapiens) (UniProt Q92800); assay: Inhibition of human EZH1 using SAM as substrate at 10 uM by time-resolved fluorescence assay relative to control
T1 sequence (whole entry): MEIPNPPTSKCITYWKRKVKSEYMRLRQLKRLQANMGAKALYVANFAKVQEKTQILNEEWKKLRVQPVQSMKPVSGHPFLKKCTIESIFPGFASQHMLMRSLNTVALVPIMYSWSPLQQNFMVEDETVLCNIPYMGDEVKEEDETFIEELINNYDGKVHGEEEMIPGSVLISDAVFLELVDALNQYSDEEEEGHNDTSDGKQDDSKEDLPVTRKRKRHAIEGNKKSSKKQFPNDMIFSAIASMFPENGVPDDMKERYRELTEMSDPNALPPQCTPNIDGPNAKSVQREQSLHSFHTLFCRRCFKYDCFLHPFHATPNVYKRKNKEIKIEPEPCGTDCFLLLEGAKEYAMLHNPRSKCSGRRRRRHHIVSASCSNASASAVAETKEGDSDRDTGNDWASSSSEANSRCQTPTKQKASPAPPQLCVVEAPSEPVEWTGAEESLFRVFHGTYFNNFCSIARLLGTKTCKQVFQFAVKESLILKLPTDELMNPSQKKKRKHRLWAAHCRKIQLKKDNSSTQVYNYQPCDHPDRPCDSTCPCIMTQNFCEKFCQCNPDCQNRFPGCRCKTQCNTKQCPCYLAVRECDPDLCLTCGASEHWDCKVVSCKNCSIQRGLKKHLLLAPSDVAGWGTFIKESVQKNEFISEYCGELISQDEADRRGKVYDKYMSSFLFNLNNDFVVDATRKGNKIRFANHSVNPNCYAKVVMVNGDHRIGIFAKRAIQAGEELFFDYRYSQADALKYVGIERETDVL

RD [2] = assay: Antiproliferative activity against EZH2 and G9a knockdown human RD cells assessed as reduction in clone formation rate at 5 uM for 1 to 2 weeks with fresh medium replacement for every 2 to 3 days by crystal violet staining based microscopic analysis; type: functional, cell-based; settings: time 1-2 weeks
[3] = molecular target: Histone-lysine N-methyltransferase EZH2 (Homo sapiens, UniProt Q15910); assay: Inhibition of human EZH2 using SAM as substrate at 10 uM by time-resolved fluorescence assay relative to control
Sequence of Histone-lysine N-methyltransferase EZH2 (Q15910 whole entry, looked up): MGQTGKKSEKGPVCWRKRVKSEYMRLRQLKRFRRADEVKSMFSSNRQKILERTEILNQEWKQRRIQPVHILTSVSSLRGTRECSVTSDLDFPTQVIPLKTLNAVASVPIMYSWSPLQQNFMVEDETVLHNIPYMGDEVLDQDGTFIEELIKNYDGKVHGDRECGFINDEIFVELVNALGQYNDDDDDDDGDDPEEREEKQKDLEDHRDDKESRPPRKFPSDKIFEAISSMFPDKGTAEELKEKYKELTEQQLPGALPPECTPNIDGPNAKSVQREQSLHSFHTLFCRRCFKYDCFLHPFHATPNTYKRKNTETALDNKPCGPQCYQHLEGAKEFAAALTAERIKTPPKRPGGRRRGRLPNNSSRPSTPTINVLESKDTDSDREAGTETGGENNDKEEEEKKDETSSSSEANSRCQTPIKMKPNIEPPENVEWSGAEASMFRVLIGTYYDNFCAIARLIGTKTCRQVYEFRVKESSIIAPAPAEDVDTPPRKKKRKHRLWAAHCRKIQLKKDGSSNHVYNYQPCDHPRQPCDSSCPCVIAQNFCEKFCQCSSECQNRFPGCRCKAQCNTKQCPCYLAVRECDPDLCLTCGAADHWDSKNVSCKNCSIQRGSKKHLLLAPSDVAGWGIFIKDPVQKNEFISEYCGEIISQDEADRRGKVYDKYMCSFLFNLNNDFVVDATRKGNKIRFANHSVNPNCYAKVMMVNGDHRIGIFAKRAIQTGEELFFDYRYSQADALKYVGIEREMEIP

RD [4] = assay: Downregulation of H3K36me2 expression in human RD cells at 5 uM incubated for 6 days by immunoblotting analysis; type: functional, cell-based; settings: time 6.0 day
RD [5] = assay: Antitumor activity against human RD cells xenografted in BALB/c nude mouse assessed as suppression of tumor growth administered intraperitoneally for 5 consecutive days followed by 2 rest days for 3 weeks; settings: dose 10-20 mg/kg, route ip
[6] = Toxicity in BALB/c nude mouse xenografted with human RD cells assessed as mortality at 10 to 20 mg/kg, ip administered for 5 consecutive days followed by 2 rest days for 3 weeks; type: organism-based; settings: in vivo, 504 h, dose 10-20 mg/kg
RD [7] = assay: Antitumor activity against EZH2 and G9a knockdown human RD cells xenografted in BALB/c nude mouse assessed as tumor growth inhibition at 20 mg/kg, ip administered for 15 days; type: functional, organism-based; settings: time 15.0 day
[8] = molecular target: Histone-lysine N-methyltransferase, H3 lysine-79 specific (Homo sapiens) (UniProt Q8TEK3); assay: Binding affinity to DOT1L in human RD cells assessed as increase in protein thermal stability at 5 uM incubated for 4 hrs by CETSA based Western blot analysis; type: cell-based
Sequence of Histone-lysine N-methyltransferase, H3 lysine-79 specific (Homo sapiens) (Q8TEK3 whole entry, looked up): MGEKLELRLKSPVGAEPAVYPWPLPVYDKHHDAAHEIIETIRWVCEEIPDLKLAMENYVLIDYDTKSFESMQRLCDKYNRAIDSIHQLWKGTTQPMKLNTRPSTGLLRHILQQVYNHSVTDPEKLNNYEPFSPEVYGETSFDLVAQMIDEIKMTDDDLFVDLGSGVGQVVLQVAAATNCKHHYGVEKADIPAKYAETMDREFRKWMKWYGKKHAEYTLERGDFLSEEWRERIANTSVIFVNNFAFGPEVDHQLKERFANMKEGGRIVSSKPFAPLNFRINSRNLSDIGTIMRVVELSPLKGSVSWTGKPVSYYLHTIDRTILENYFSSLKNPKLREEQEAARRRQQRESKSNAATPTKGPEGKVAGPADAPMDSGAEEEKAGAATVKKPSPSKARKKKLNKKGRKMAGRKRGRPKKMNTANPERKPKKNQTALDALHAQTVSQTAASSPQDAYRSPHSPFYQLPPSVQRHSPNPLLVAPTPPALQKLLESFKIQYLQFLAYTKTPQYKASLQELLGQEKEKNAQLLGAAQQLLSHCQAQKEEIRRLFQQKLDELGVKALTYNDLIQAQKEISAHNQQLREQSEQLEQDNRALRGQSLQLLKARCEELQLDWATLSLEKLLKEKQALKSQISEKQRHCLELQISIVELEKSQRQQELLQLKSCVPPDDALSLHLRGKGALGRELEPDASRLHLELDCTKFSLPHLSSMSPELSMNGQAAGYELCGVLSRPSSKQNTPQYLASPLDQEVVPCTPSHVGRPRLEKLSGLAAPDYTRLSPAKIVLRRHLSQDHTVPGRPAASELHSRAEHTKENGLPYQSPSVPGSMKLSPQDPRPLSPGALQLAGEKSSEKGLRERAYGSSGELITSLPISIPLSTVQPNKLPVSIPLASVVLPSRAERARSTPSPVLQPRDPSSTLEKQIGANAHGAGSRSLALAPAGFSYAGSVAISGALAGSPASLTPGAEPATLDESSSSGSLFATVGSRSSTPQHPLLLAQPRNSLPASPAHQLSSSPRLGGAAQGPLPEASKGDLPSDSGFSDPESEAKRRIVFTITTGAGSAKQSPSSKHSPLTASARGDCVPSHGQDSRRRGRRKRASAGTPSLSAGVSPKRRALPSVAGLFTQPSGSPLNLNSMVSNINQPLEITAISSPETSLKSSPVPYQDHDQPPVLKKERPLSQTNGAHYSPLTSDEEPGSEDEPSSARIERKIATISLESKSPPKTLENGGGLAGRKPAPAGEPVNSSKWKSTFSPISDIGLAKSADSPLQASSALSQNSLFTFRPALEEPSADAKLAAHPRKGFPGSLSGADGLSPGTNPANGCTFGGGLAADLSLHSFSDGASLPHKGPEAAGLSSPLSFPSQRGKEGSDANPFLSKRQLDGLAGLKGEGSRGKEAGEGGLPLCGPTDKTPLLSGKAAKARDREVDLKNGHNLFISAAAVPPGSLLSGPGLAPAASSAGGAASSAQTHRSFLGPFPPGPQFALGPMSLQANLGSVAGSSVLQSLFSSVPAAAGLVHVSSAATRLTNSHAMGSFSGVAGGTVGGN

RD [9] = assay: Cytotoxicity against human RD cells assessed as reduction in cell viability incubated for 72 hrs by MTT assay; type: functional
[10] = Plasma protein binding in Kunming mouse by equilibrium dialysis method; type: ADME, cell-free; settings: read-out: PPB (converted)
RD [11] = assay: Antitumor activity against human RD-EV cells xenografted in BALB/c nude mouse assessed as tumor growth inhibition at 20 mg/kg, ip administered for 15 days; type: functional; settings: 360 h, time 15 day, read-out: TGI
[12] = Clearance in Sprague-Dawley rat at 10 mg/kg, iv administered for 12 hrs by HPLC analysis; type: ADME, organism-based; settings: in vivo
SW982 = assay: Cytotoxicity against human SW982 cells assessed as reduction in cell viability incubated for 72 hrs by MTT assay; type: functional
RD [13] = assay: Downregulation of H3K4me1 expression in human RD cells at 5 uM incubated for 6 days by immunoblotting analysis; type: functional, cell-based; settings: time 6.0 day
RD [14] = assay: Downregulation of H3K79me2 expression in human RD cells at 5 uM incubated for 6 days by immunoblotting analysis; type: functional, cell-based; settings: time 6.0 day

## COc1cc2c(NCc3c(C)cc(C)[nH]c3=O)nc(N3CCC(F)(F)CC3)nc2cc1OCCCN1CCCC1
[1]
  inhibition: 89.2%
RD [2]
  Activity: inactive
[3]
  inhibition: 98.3%
RD [4]
  Activity: inactive
RD [5]
  Activity: Dose-Dependent Effect
[6]
  Activity: Non-Toxic
RD [7]
  inhibition: inactive
[8]
  Activity: inactive
RD [9]
  CC50: 19.6 µM
[10]
  fraction unbound: 0.186
RD [11]
  inhibition in vivo at 20 mg/kg: 55.4%
[12]
  CL: 15.14 mL/min/kg
SW982
  CC50: 19.9 µM
RD [13]
  Activity: inactive
RD [14]
  Activity: inactive
